Common to all, as to assay: antimicrobial activity, serial dilution method on agar plate
What all share (assay type): cell-based

For assay [1], the system named is Klebsiella pneumoniae. The conditions noted are these: read-out: Minimum Inhibitory Concentration. The procedure:
(§1) The antimicrobial activity of the following test compounds on various test organisms listed below was determined by the serial dilution method on agar plate (Heart Infusion agar produced by Difco Co.) (see CHEMOTHERAPY 22, pp. 1126-1128 (1974)), and the minimum inhibitory concentrations (mcg/ml) obtained are shown in Table 1 below.
(§2) A sample of each test organism was prepared so that the population of the organism was 1×10^8 cells/ml (O.D. 660 mμ=0.07 to 0.16) and 1×10^6 cells/ml (which was obtained by diluting the above 1×10^8 cells/ml preparation).

Assay [2] deals with Staphylococcus aureus FDA 209 P. The note with it: read-out: Minimum Inhibitory Concentration. The procedure:
as §1, §2

The test system of assay [3] is Shigella Sonnei EW 33. The conditions noted are these: read-out: Minimum Inhibitory Concentration. The procedure:
as §1, §2

In assay [4] the test system is Serattia marcescens IFO 12648. The note with it: read-out: Minimum Inhibitory Concentration. The protocol: as §1, §2
Assay [5] concerns Streptococcus pyogenes IID S-23. The note with it: read-out: Minimum Inhibitory Concentration. The procedure:
as §1, §2

For assay [6], the system named is Pseudomonas aeruginosa ATCC 10145. The conditions noted are these: read-out: Minimum Inhibitory Concentration. The protocol:
as §1, §2

Assay [7] relates to Salmonella typhi 0-901 (NCTC 8393). The conditions noted are these: Salmonella enterica. The procedure:
as §1, §2

For assay [8], the system named is Pseudomonas aeruginosa NCTC 10490. The conditions noted are these: read-out: Minimum Inhibitory Concentration. The protocol:
as §1, §2

For assay [9], the system named is Escherichia Coli NIHJ JC-2 (IFO 12734). The conditions noted are these: Escherichia coli, read-out: Minimum Inhibitory Concentration. The protocol: as §1, §2
Assay [10] has as its system Pseudomonas aeruginosa E-2. The note with it: read-out: Minimum Inhibitory Concentration. The protocol: as §1, §2
Assay [11] concerns Proteus rettgeri NIH 96. The conditions noted are these: Providencia rettgeri, read-out: Minimum Inhibitory Concentration. The protocol: as §1, §2
The mark [12] stands for this setting: FDA209, inoculum 1 × 10^6 cells/ml.
Setting [13] is: FDA209, inoculum 1 × 10^8 cells/ml.
The mark [14] stands for this setting: IIDS23, inoculum 1 × 10^6 cells/ml.
Setting [15] is: IIDS23, inoculum 1 × 10^8 cells/ml.
[16] abbreviates: ATCC10145, inoculum 1 × 10^6 cells/ml.
[17] abbreviates: ATCC10145, inoculum 1 × 10^8 cells/ml.
[18] abbreviates: read-out: Minimum Inhibitory Concentration, inoculum 1 × 10^6 cells/ml.
Where [19] appears, read: read-out: Minimum Inhibitory Concentration, inoculum 1 × 10^8 cells/ml.
The mark [20] stands for this setting: NCTC10490, inoculum 1 × 10^6 cells/ml.
The mark [21] stands for this setting: NCTC10490, inoculum 1 × 10^8 cells/ml.
The mark [22] stands for this setting: NIH96, inoculum 1 × 10^6 cells/ml.
The mark [23] stands for this setting: NIH96, inoculum 1 × 10^8 cells/ml.

Structures are written as SMILES. Values after ≈ are worked out from the molar mass of the structure shown. Where two headings read alike, the source gives them in different places.

As to `CC1CCc2c(N3CCN(C)CC3)c(Cl)cc3c(=O)c(C(=O)O)cn1c23` (stereo not drawn) [Compound U, 8-(4-Methyl-1-piperazinyl)-9-chloro-5-methyl-6,7-dihydro-1-oxo-1H,5H--benzo[ij]-quinolizine-2-carboxylic acid], the MIC in assay [1] (inoculum 1 × 10^6 cells/ml) is 0.2 µg/mL (≈ 0.532 µM); in assay [1] (inoculum 1 × 10^8 cells/ml), 0.2 µg/mL (≈ 0.532 µM); in assay [2] (setting [12]) it was 0.4 µg/mL (≈ 1.06 µM); in [2] (setting [13]), 0.8 µg/mL (≈ 2.13 µM); in [3] (inoculum 1 × 10^6 cells/ml) it was 0.1 µg/mL (≈ 0.266 µM); in [3] (inoculum 1 × 10^8 cells/ml) it was 0.2 µg/mL (≈ 0.532 µM). The MIC in assay [4] (inoculum 1 × 10^6 cells/ml) came to 0.4 µg/mL (≈ 1.06 µM); in assay [4] (inoculum 1 × 10^8 cells/ml), 0.4 µg/mL (≈ 1.06 µM); in assay [5] (setting [14]), 3.1 µg/mL (≈ 8.25 µM); in [5] (setting [15]), 3.1 µg/mL (≈ 8.25 µM); in assay [6] (setting [16]) it was 3.1 µg/mL (≈ 8.25 µM); in assay [6] (setting [17]), 3.1 µg/mL (≈ 8.25 µM). In addition, the MIC is at most 0.05 µg/mL in assay [7] (setting [18]); at most 0.05 µg/mL in [7] (setting [19]); 1.6 µg/mL (≈ 4.26 µM) in [8] (setting [20]); 1.6 µg/mL (≈ 4.26 µM) in assay [8] (setting [21]); 0.2 µg/mL (≈ 0.532 µM) in assay [9] (inoculum 1 × 10^6 cells/ml); 0.2 µg/mL (≈ 0.532 µM) in [9] (inoculum 1 × 10^8 cells/ml). Also, the MIC in assay [10] (E2, inoculum 1 × 10^6 cells/ml) amounted to 6.3 µg/mL (≈ 16.8 µM); in assay [10] (E2, inoculum 1 × 10^8 cells/ml) it was 6.3 µg/mL (≈ 16.8 µM); in [11] (setting [22]) it was 0.4 µg/mL (≈ 1.06 µM); in assay [11] (setting [23]) it was 0.4 µg/mL (≈ 1.06 µM).

Turning to `CC1CCc2c(N3CCN(C=O)CC3)c(Cl)cc3c(=O)c(C(=O)O)cn1c23` (stereo not drawn) [Compound V, 8-(4-Formyl-1-piperazinyl)-9-chloro-5-methyl-6,7-dihydro-1-oxo-1H,5H--benzo[ij]-quinolizine-2-carboxylic acid], the MIC in assay [1] (inoculum 1 × 10^6 cells/ml) is 0.8 µg/mL (≈ 2.05 µM); in [1] (inoculum 1 × 10^8 cells/ml), 0.8 µg/mL (≈ 2.05 µM); in assay [2] (setting [12]) it was 0.2 µg/mL (≈ 0.513 µM); in [2] (setting [13]) it was 0.2 µg/mL (≈ 0.513 µM); in [3] (inoculum 1 × 10^6 cells/ml), 0.4 µg/mL (≈ 1.03 µM); in assay [3] (inoculum 1 × 10^8 cells/ml), 0.8 µg/mL (≈ 2.05 µM). The MIC in [4] (inoculum 1 × 10^6 cells/ml) was 3.1 µg/mL (≈ 7.95 µM); in [4] (inoculum 1 × 10^8 cells/ml), 3.1 µg/mL (≈ 7.95 µM); in assay [5] (setting [14]) it was 1.6 µg/mL (≈ 4.1 µM); in [5] (setting [15]), 3.1 µg/mL (≈ 7.95 µM); in assay [6] (setting [16]), 12.5 µg/mL (≈ 32.1 µM); in [6] (setting [17]), 12.5 µg/mL (≈ 32.1 µM). The MIC in assay [7] (setting [18]) is 0.2 µg/mL (≈ 0.513 µM); in assay [7] (setting [19]) it was 0.2 µg/mL (≈ 0.513 µM); in assay [8] (setting [20]), 1.6 µg/mL (≈ 4.1 µM); in [8] (setting [21]), 3.1 µg/mL (≈ 7.95 µM); in assay [9] (inoculum 1 × 10^6 cells/ml), 0.8 µg/mL (≈ 2.05 µM); in [9] (inoculum 1 × 10^8 cells/ml), 0.8 µg/mL (≈ 2.05 µM). For the same molecule, the MIC in assay [10] (E2, inoculum 1 × 10^6 cells/ml) is 6.3 µg/mL (≈ 16.2 µM); in [10] (E2, inoculum 1 × 10^8 cells/ml) it was 12.5 µg/mL (≈ 32.1 µM); in [11] (setting [22]), 0.8 µg/mL (≈ 2.05 µM); in assay [11] (setting [23]) it was 0.8 µg/mL (≈ 2.05 µM).

As for `CC1CCc2c(N3CCN(C)CC3)c(F)cc3c(=O)c(C(=O)O)cn1c23` (stereo not drawn) [Compound W, 8-(4-Methyl-1-piperazinyl)-9-fluoro-5-methyl-6,7-dihydro-1-oxo-1H,5H--benzo[ij]-quinolizine-2-carboxylic acid], the MIC was 0.2 µg/mL (≈ 0.556 µM) in assay [1] (inoculum 1 × 10^6 cells/ml); 0.4 µg/mL (≈ 1.11 µM) in [1] (inoculum 1 × 10^8 cells/ml); 0.4 µg/mL (≈ 1.11 µM) in [2] (setting [12]); 0.4 µg/mL (≈ 1.11 µM) in [2] (setting [13]); 0.2 µg/mL (≈ 0.556 µM) in [3] (inoculum 1 × 10^6 cells/ml); 0.2 µg/mL (≈ 0.556 µM) in [3] (inoculum 1 × 10^8 cells/ml). The MIC in assay [4] (inoculum 1 × 10^6 cells/ml) stood at 0.4 µg/mL (≈ 1.11 µM); in assay [4] (inoculum 1 × 10^8 cells/ml) it was 0.4 µg/mL (≈ 1.11 µM); in assay [5] (setting [14]), 1.6 µg/mL (≈ 4.45 µM); in [5] (setting [15]), 1.6 µg/mL (≈ 4.45 µM); in [6] (setting [16]), 1.6 µg/mL (≈ 4.45 µM); in assay [6] (setting [17]), 3.1 µg/mL (≈ 8.63 µM). The MIC in [7] (setting [18]) was at most 0.05 µg/mL; in assay [7] (setting [19]), 0.1 µg/mL (≈ 0.278 µM); in [8] (setting [20]), 1.6 µg/mL (≈ 4.45 µM); in assay [8] (setting [21]), 1.6 µg/mL (≈ 4.45 µM); in assay [9] (inoculum 1 × 10^6 cells/ml) it was 0.4 µg/mL (≈ 1.11 µM); in assay [9] (inoculum 1 × 10^8 cells/ml) it was 0.4 µg/mL (≈ 1.11 µM). For the same molecule, the MIC in [10] (E2, inoculum 1 × 10^6 cells/ml) came to 3.1 µg/mL (≈ 8.63 µM); in [10] (E2, inoculum 1 × 10^8 cells/ml), 6.3 µg/mL (≈ 17.5 µM); in [11] (setting [22]), 0.4 µg/mL (≈ 1.11 µM); in assay [11] (setting [23]) it was 0.4 µg/mL (≈ 1.11 µM).

(Values after patent publication US4416884A, “Piperazinylbenzoheterocyclic compounds” (Otsuka Pharmaceutical Co., Ltd., priority 1978, dated 1983).)
